Test results reported in US9029393B2, “Adenosine receptor ligands and uses thereof” (Kaldi Pharma, SAS, priority 2009, dated 2015).
Where a name gives a salt, the structure may show the parent alone.

Legend:
hA2A receptor = hA2A receptor (Homo sapiens (Human), UniProt P29274); assay: A2A FRET-based binding assay; settings: HEK GFP-A2A stable cell line, dyed CGS15943-derived probe
Protocol: Assay protocol: Compounds were evaluated on an in-vitro binding assay developed based on the technology described in the patent WO 98/55873. This assay was developed from hA2A receptor that was fused at its amino terminal domain to Green Fluorescent Protein (GFP) and stably expressed in HEK cells. The probe used is a dyed ligand derived from the non-selective CGS15943. For the FRET-binding experiment, HEK GFP-A2A stable cell line was seeded onto poly-D-lysine precoated black-walled 96-well plates in normal growth media (0.7 10^5 cells per well). After 24 hours of culture at 37° C., the cell media was removed and cells were washed. The tested compounds were applied on cells by the FLIPR^TETRA® (Molecular Devices®) and incubated for 10 minutes prior to addition of the dyed probe. When a drug interacts with the receptor, the FRET signal measured by the variation of GFP fluorescence at 510 nm is disrupted. The time curves of ligand binding were recorded during 1000 seconds. (excitation Light Emitting Diode 470-495 nm, emission 510+/−10 nm). The percentage of inhibition allows the evaluation of the inhibitory activity of compounds in comparison to the antagonist A2A reference CGS15943. The dose-inhibition curves were fitted with variable slope, using GraphPad® Prism software, in order to determine […] and Ki values. The dose-inhibition experiments were all performed in duplicate, three times independently.

human A2A receptor = human A2A receptor (Homo sapiens, UniProt P29274); assay: A2A-antagonist Ca++ functional assay (CGS21680 at EC80); assay type: cell-based; settings: HEK cells expressing GFP-hA2A and Gα15, inhibition of CGS21680 (EC80)-induced Ca2+ increase
Description: Assay protocol: HEK cells stably expressing the human A2A receptor fused at its amino terminal domain to GFP, and cultured in Modified Eagle's Medium supplemented with 10% FCS, were transiently transfected by electroporation with plasmid DNA encoding the promiscuous G protein Gα15 in order to deviate the natural coupling of the receptor from AMPc production to calcium (Ca^2+) release pathway (Brabet et al., Neuropharmacology 37:1043-1051, 1998). Receptor activity was detected by changes in intracellular Ca^2+, measured using the fluorescent Ca^2+ sensitive dye, Fluo4AM (Molecular Probes®).
Cells were plated after transfection onto polyornithine coated, clear bottom, black-walled, 96-well plates and cultured for 24 hours. The day of the test, cells were washed with freshly prepared buffer B (HBSS 1×, Hepes 20 mM, MgSO4.7H2O 1 mM, Na2CO3 3.3 mM, CaCl2-2H2O 1.3 mM, 0.5% BSA, Probenecid 2.5 mM) and loaded at 37° C. in 5% CO2 for 1.5 hours with buffer B containing 1 μM Fluo4AM and 0.1 mg/mL Pluronic Acid. Afterwards cells were washed twice with buffer B and 50 μL of this buffer were added to each well. The tested compounds were incubated […] before addition of CGS21680 (used as reference agonist) at a concentration leading to 80% of its maximal activity (EC80). Afterwards, the intracellular Ca^2+ measurements were performed on a 60s kinetic by detection of the fluorescence intensity (excitation 485 nm, emission 525 nm) using the fluorescence microplate reader FlexStation® (Molecular Devices®). All data reflect three independent experiments. Dose-response curves were fitted by using the sigmoidal dose-response (variable slope) analyze in GraphPad Prism® program (San Diego) and IC50 of antagonist compound was calculated. Dose-response experiments were all performed in triplicate, three times independently.

Sequence of hA2A receptor (P29274 whole entry, the tested form may be a part): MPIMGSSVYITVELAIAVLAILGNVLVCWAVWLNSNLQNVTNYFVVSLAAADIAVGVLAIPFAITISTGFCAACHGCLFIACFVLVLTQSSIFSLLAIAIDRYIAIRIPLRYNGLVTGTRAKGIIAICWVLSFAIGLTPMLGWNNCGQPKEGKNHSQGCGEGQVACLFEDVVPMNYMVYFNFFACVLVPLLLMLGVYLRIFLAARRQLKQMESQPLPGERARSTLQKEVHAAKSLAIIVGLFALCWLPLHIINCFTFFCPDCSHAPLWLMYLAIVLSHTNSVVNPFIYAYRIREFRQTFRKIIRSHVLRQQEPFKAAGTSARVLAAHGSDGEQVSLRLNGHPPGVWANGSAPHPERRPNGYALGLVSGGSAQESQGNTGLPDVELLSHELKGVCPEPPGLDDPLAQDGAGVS

SMILES | melting point [°C] | Ki (hA2A receptor) [nM] | IC50 (human A2A receptor) [nM]
COCCOCCn1nc(-c2cnc3ccc(F)cn23)c2ccc(C(=O)N3CCCCCC3)cc21.Cl | 159 to 165 |  | 
Cl.O=C(c1ccc2c(-c3cnc4ccc(F)cn34)noc2c1)N1CCCCC1 | 203 to 205 |  | 
Cc1ccc2ncc(-c3nn(C)c4cc(C(=O)N5CCCCCC5)ccc34)n2c1.Cl | > 250 |  | 
CCc1ccc2ncc(-c3nn(C)c4cc(C(=O)N5CCCCCC5)ccc34)n2c1.Cl | > 250 |  | 
Cl.Cn1nc(-c2cnc3ccccn23)c2ccc(C(=O)N3CCCCCC3)cc21 | > 250 |  | 
CN(C(=O)c1ccc2c(-c3cnc4ccc(F)cn34)nn(C)c2c1)c1ccccc1.Cl | > 250 |  | 
Cl.Cn1nc(-c2cnc3ccc(F)cn23)c2ccc(C(=O)N3CCCC4CCCCC43)cc21 (stereo not drawn) | 248 to 249 |  | 
Cl.Cn1nc(-c2cnc3ccc(F)cn23)c2ccc(C(=O)N(CC3CC3)C3CCCCC3)cc21 | 235 to 245 |  | 
Cl.Cn1nc(-c2cnc3ccc(F)cn23)c2ccc(C(=O)N3CCCCCCCC3)cc21 (hydrate or solvate) | 240 to 245 |  | 
Cl.Cn1nc(-c2cnc3ccc(F)cn23)c2ccc(C(=O)N3CCCCC3)cc21 (hydrate or solvate) | > 250 |  | 
Cl.Cn1nc(-c2cnc3ccc(C#N)cn23)c2ccc(C(=O)N3CCCCC3)cc21 (hydrate or solvate) | > 250 |  | 
Cl.Cn1nc(-c2cnc3ccc(F)cn23)c2ccc(C(=O)N3CCCCCCC3)cc21 (hydrate or solvate) [Example 97, Azocan-1-yl-[3-(6-fluoro-imidazo[1,2-a]pyridin-3-yl)-1-methyl-1H-indazol-6-yl]-methanone, chlorhydrate salt] | 241 to 249 |  | 
CCN(C(=O)c1ccc(C(=O)c2cnc3ccc(C#N)cn23)cc1)C1CCCCC1 [Example 7, 4-(6-Cyano-imidazo[1,2-a]pyridine-3-carbonyl)-N-cyclohexyl-N-ethyl-benzamide] |  | 171 ± 104 | 
CCN(C(=O)c1ccc(C(=O)c2cnc3ccccn23)nc1)C1CCCCC1 [Example 23, N-Cyclohexyl-N-ethyl-6-(imidazo[1,2-a]pyridine-3-carbonyl)-nicotinamide] |  | 264 ± 141 | 403 ± 163
O=C(c1ccc(C(=O)N(C2CCCCC2)C2CCCCC2)cc1)c1cnc2ccccn12 [Example 48, N,N-Dicyclohexyl-4-(imidazo[1,2-a]pyridine-3-carbonyl)-benzamide] |  | 138 ± 115 | 945 ± 419
N#Cc1ccc2ncc(C(=O)c3ccc(C(=O)N4CCCCCC4)cc3F)n2c1 [Example 73, 3-[4-(Azepan-1-ylcarbonyl)-2-fluorobenzoyl]imidazo[1,2-a]pyridine-6-carbonitrile] | 128 to 130 |  | 
COC[C@H]1CCCN1C(=O)c1ccc2c(-c3cnc4ccc(C#N)cn34)nn(C)c2c1 [Example 101, 3-(1-Methyl-6-{[(2R)-2-(methoxymethyl)pyrrolidin-1-yl]carbonyl}-1H-indazol-3-yl)imidazo[1,2-a]pyridine-6-carbonitrile, chlorhydrate salt] |  | 3 | 12 ± 4
CN1CCN(C(=O)n2nc(-c3cnc4ccc(F)cn34)c3ccc(C(=O)N4CCCCCC4)cc32)CC1.Cl [Example 111, Azepan-1-yl-[3-(6-fluoro-imidazo[1,2-a]pyridin-3-yl)-1-[(4-methylpiperazin-1-yl)carbonyl]-1H-indazol-6-yl]-methanone, HCl salt] | 193 to 199 | 291 ± 30 | 
O=C(c1ccc2c(-c3cnc4ccc(F)cn34)c[nH]c2c1)N1CCCCCC1 [Example 134, 3-[6-(Azepan-1-ylcarbonyl)-1H-indol-3-yl]-6-fluoroimidazo[1,2-a]pyridine] |  | 348 ± 95 | 
CCN(C(=O)c1ccc(C(=O)c2cnc3ccc(Cl)nn23)cc1)C1CCCCC1 [Example 139, N-Cyclohexyl-N-ethyl-4-(6-chloroimidazo[1,2-b]pyridazin-3-ylcarbonyl)-benzamide] |  | 459 ± 270 | 

The next lines start with the values.

melting point [°C] | Ki (hA2A receptor) [nM] | IC50 (human A2A receptor) [nM] | SMILES
139 to 140 |  |  | Cl.O=C(c1ccc2c(-c3cnc4ccc(F)cn34)nn(CCc3ccccc3)c2c1)N1CCCCCC1
230 to 245 |  |  | Cl.O=C(c1ccc2c(-c3cnc4ccc(F)cn34)nn(CCN3CCOCC3)c2c1)N1CCCCCC1
219 to 225 |  |  | CCN(C(=O)c1ccc2c(-c3cnc4ccc(F)cn34)noc2c1)C(C)C.Cl
234 to 235 |  |  | Cl.N#Cc1ccc2ncc(-c3noc4cc(C(=O)N5CCCCCC5)ccc34)n2c1
> 250 |  |  | Cl.Cn1nc(-c2cnc3ccc(C#N)cn23)c2ccc(C(=O)N3CCCCCC3)cc21
> 250 |  |  | Cl.Cn1nc(-c2cnc3ccc(C4CC4)cn23)c2ccc(C(=O)N3CCCCCC3)cc21
> 250 |  |  | CCN(C(=O)c1ccc2c(-c3cnc4ccc(F)cn34)nn(C)c2c1)C(C)C.Cl
230 to 235 |  |  | COC[C@H]1CCCN1C(=O)c1ccc2c(-c3cnc4ccc(C#N)cn34)nn(C)c2c1.Cl (hydrate or solvate) [Example 101, 3-(1-Methyl-6-{[(2R)-2-(methoxymethyl)pyrrolidin-1-yl]carbonyl}-1H-indazol-3-yl)imidazo[1,2-a]pyridine-6-carbonitrile, chlorhydrate salt]
 | 108 ± 74 | 891 ± 571 | CCN(C(=O)c1ccc(C(=O)c2cnc3ccc(Br)cn23)cc1)C1CCCCC1 [Example 10, 4-(6-Bromo-imidazo[1,2-a]pyridine-3-carbonyl)-N-cyclohexyl-N-ethyl-benzamide]
 | 34 ± 9 |  | CCN(C(=O)c1ccc(C(=O)c2cnc3ccc(F)cn23)cc1Cl)C1CCCCC1 [Example 24, 2-Chloro-N-cyclohexyl-N-ethyl-4-(6-fluoro-imidazo[1,2-a]pyridine-3-carbonyl)-benzamide]
131 to 135 |  |  | CN(C(=O)c1ccc(C(=O)c2cnc3ccc(F)cn23)cc1)c1ccccc1 [Example 50, 4-(6-Fluoro-imidazo[1,2-a]pyridine-3-carbonyl)-N-methyl-N-phenyl-benzamide]
141 to 145 | 188 ± 63 |  | CCN(C(=O)c1ccc(C(=O)c2cnc3ccccn23)cc1)c1ccccc1 [Example 56, N-Ethyl-4-(imidazo[1,2-a]pyridine-3-carbonyl)-N-phenyl-benzamide]
 | 4 ± 1 | 15 ± 4 | Cn1nc(-c2cnc3ccc(F)cn23)c2ccc(C(=O)N3CCCCCC3)cc21 [Example 79, Azepan-1-yl-[3-(6-fluoro-imidazo[1,2-a]pyridin-3-yl)-1-methyl-1H-indazol-6-yl]-methanone]
202 to 204 | 177 ± 5 |  | Cl.Cn1nc(-c2cnc3ccc(C(F)(F)F)cn23)c2ccc(C(=O)N3CCCCCC3)cc21 [Example 85, [6-(Azepan-1-ylcarbonyl)]-1-methyl-3[6-(trifluoromethyl)-imidazo[1,2-a]pyridin-3-yl]-1H-indazole, HCl salt]
 | 3 ± 0.4 | 21 ± 8 | Cn1nc(-c2cnc3ccc(F)cn23)c2ccc(C(=O)N3CCCCCCC3)cc21 [Example 97, Azocan-1-yl-[3-(6-fluoro-imidazo[1,2-a]pyridin-3-yl)-1-methyl-1H-indazol-6-yl]-methanone, chlorhydrate salt]
134 to 135 | 34 ± 5 |  | Cl.O=C(c1ccc2c(-c3cnc4ccc(F)cn34)nn(Cc3ccccc3)c2c1)N1CCCCCC1 [Example 107, Azepan-1-yl-[1-benzyl-3-(6-fluoro-imidazo[1,2-a]pyridin-3-yl)-1H-indazol-6-yl]-methanone, HCl salt]
 | 147 ± 54 |  | N#Cc1ccc2ncc(-c3noc4cc(C(=O)N5CCOCC5)ccc34)n2c1 [Example 125, 3-[6-(Morpholin-4-ylcarbonyl)-1,2-benzisoxazol-3-yl]imidazo[1,2-a]pyridine-6-carbonitrile, HCl salt]
 | 84 ± 11 |  | Nc1nc(-c2cnc3ccc(F)cn23)c2ccc(C(=O)N3CCCCCC3)cc2n1 [Example 136, 2-Amino-7-(azepan-1-ylcarbonyl)-4-(6-fluoroimidazo[1,2-a]pyridin-3-yl)quinazoline, HCl salt]
